In US11192914B2, “Alkyne containing nucleotide and nucleoside therapeutic compositions and uses related thereto” (Emory University, priority 2016, dated 2021):
Like-named read-outs stand apart in the source and are kept apart here.

Key:
[1] = tested on: ZIKV; experiment: ZIKV infectious (cytoprotection, XTT) assay; format: cell-based, Zika virus; settings: Zika virus, Vero, Cell Line Vero (Example 92); read-out: ZIKV EC50
Method: Vero cells were passaged in DMEM medium in T-75 flasks prior to use in the antiviral assay. On the day preceding the assay, the cells were split 1:2 to assure they were in exponential growth phase at the time of infection. The cells were resuspended at […] cells per well in tissue culture medium and added to flat bottom microtiter plates in a volume of […]. The plates were incubated at 37° C./5% CO2 overnight to allow for cell adherence. Separately, Zika virus was titrated in LLCMK2 cells to define the inoculum for use in the antiviral assay. Virus was diluted in DMEM medium such that the amount of virus added to each well in a volume of […] was the amount determined to achieve 85 to 95% cell killing at 5 days post-infection. Following incubation test plates were stained with XTT dye. XTT solution was prepared daily as a stock solution of 1 mg/mL in RPM11640. PMS solution was prepared at 0.15 mg/mL in PBS and stored in the dark at −20° C. XTT/PMS stock was prepared immediately before use by adding […] of PMS per mL of XTT solution. Fifty microliters of XTT/PMS was added to each well of the plate, and the plate was reincubated for 4 hours at 37° C. Plates were sealed with adhesive plate sealers ad shaken gently to mix the soluble formazan product, and the plate was read spectrophotometrically read 450/650 nm with a Molecular Devices Vmax plate reader. The raw data was collected from Softmax Pro and imported into a Microsoft Excel XLfit4 spreadsheet for analysis using four parameter curve fit calculations.

[2] = tested on: DENV2 New Guinea C; experiment: Anti-Dengue virus cytoprotection assay; format: cell-based, Dengue virus type 2
Method: Cell Preparation—BHK21 cells (Syrian golden hamster kidney cells, ATCC catalog #CCL-I 0), Vero cells (African green monkey kidney cells, ATCC catalog #CCL-81), or Huh-7 cells (human hepatocyte carcinoma) were passaged in DMEM supplemented with 10% FBS, 2 mM L-glutamine, 100 U/mL penicillin, and 100 μg/mL streptomycin in T-75 flasks prior to use in the antiviral assay. On the day preceding the assay, the cells were split 1:2 to assure they were in an exponential growth phase at the time of infection. Total cell and viability quantification was performed using a hemocytometer and Trypan Blue dye exclusion. Cell viability was greater than 95% for the cells to be utilized in the assay. The cells were resuspended at 3×10^3 ([…] for Vero cells and Huh-7 cells) cells per well in tissue culture medium and added to flat bottom microtiter plates in a volume of 100 μL. The plates were incubated at 37° C./5% CO2 overnight to allow for cell adherence.
Virus Preparation—The Dengue virus type 2 New Guinea C strain was obtained from ATCC (catalog #VR-1584) and was grown in LLC-MK2 (Rhesus monkey kidney cells; catalog #CCL-7.1) cells for the production of stock virus pools. An aliquot of virus pretitered in BHK21 cells was removed from the freezer (−80° C.) and allowed to thaw slowly to room temperature in a biological safety cabinet. Virus was resuspended and diluted into assay medium (DMEM supplemented with 2% heat-inactivated FBS, 2 mM L-glutamine, 100 U/mL penicillin, and 100 μg/mL streptomycin) such that the amount of virus added to each well in a volume of 100 μL was the amount determined to yield 85 to 95% cell killing at 6 days post-infection.
Plate Format—Each plate contains cell control wells (cells only), virus control wells (cells plus virus), triplicate drug toxicity wells per compound (cells plus drug only), as well as triplicate experimental wells (drug plus cells plus virus).
Efficacy and Toxicity XTT-Following incubation at 37° C. in a 5% CO2 incubator, the test plates were stained with the tetrazolium dye XTT (2,3-bis(2-methoxy-4-nitro-5-sulfophenyl)-5-[(phenylamino)carbonyl]-2H-tetrazolium hydroxide). XTT-tetrazolium was metabolized by the mitochondrial enzymes of metabolically active cells to a soluble formazan product, allowing rapid quantitative analysis of the inhibition of virus-induced cell killing by antiviral test substances. XTT solution was prepared daily as a stock of 1 mg/mL in RPMI 1640. Phenazine methosulfate (PMS) solution was prepared at 0.15 mg/mL in PBS and stored in the dark at −20° C. XTT/PMS stock was prepared immediately before use by adding 40 μL of PMS per ml of XTT solution. Fifty microliters of XTT/PMS was added to each well of the plate and the plate was reincubated for 4 hours at 37° C. Plates were sealed with adhesive plate sealers and shaken gently or inverted several times to mix the soluble formazan product and the plate was read spectrophotometrically at 450/650 nm with a Molecular Devices Vmax plate reader.
Data Analysis —Raw data was collected from the Softmax Pro 4.6 software and imported into a Microsoft Excel spreadsheet for analysis. The percent reduction in viral cytopathic effect compared to the untreated virus controls was calculated for each compound. The percent cell control value was calculated for each compound comparing the drug treated uninfected cells to the uninfected cells in medium alone.

[3] = tested on: RSV; experiment: Antiviral assay RSV; format: cell-based; settings: human respiratory syncytial virus, Huh-7, read-out: RSV EC50
Method: Cell Preparation-HEp2 cells (human epithelial cells, ATCC catalog #CCL-23) were passaged in DMEM supplemented with 10% FBS, 2 mM L-glutamine, 100 U/mL penicillin, 100 μg/mL streptomycin 1 mM sodium pyruvate, and 0.1 mM NEAA, T-75 flasks prior to use in the antiviral assay. On the day preceding the assay, the cells were split 1:2 to assure they were in an exponential growth phase at the time of infection. Total cell and viability quantification was performed using a hemocytometer and Trypan Blue dye exclusion. Cell viability was greater than 95% for the cells to be utilized in the assay. The cells were resuspended at 1×10^4 cells per well in tissue culture medium and added to flat bottom microtiter plates in a volume of 100 μL. The plates were incubated at 37° C./5% CO2 overnight to allow for cell adherence. […] Virus was resuspended and diluted into assay medium (DMEM supplemented with 2% heat-inactivated FBS, 2 mM L-glutamine, 100 U/mL penicillin, 100 μg/mL streptomycin, 1 mM sodium pyruvate, and 0.1 mM NEAA) such that the amount of virus added to each well in a volume of 100 μL was the amount determined to yield 85 to 95% cell killing at 6 days post-infection. Efficacy and Toxicity XTT-Plates were stained and analyzed as previously described for the Dengue cytoprotection assay.

[4] = tested on: HRV; experiment: Antiviral assay HRV; format: cell-based; settings: HeLa, read-out: HRV EC50
[5] = tested on: ZIKV; experiment: ZIKV infectious (cytoprotection, XTT) assay; format: cell-based; settings: Zika virus, Huh-7, Cell Line Huh-7 (Example 92); read-out: ZIKV EC50

C#CC1(O)C(O)[C@@H](COP(=O)(OCOC(=O)C(C)(C)C)OCOC(=O)C(C)(C)C)O[C@H]1n1ccc(=O)[nH]c1=O (stereo partly shown) [EIDD-02290]
EC50 [1]: 1060 nM
EC50 ([2]; DENV2, Huh-7, read-out: DENV2 EC50): 0.24 µM
EC50 ([2]; DENV2, Vero, read-out: DENV2 EC50): 7.56 µM
EC50 ([2]; DENV2, read-out: DENV2 EC50): 7.76 µM
EC50 [3]: 90 µM
EC50 [4]: 50 nM
EC50 [5]: 310 nM
